Assay results: the supplement of paper PMC11061612

What was measured:
Experiment in all cases: combination Emax (second highest fraction inhibited in the dose matrix, 72 h); higher = more inhibition; extreme values may be limits of the assay
[1] = system: T-T (Esophageal Squamous Cell Carcinoma)
In short: (§1)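 Bliss excess equals the observed combination effect minus the expected value EA + EB − EA·EB, where EA and EB are the effects of each agent alone. Combination Emax is the second-highest inhibition within the matrix. Inhibition was scaled from CellTiter-Glo 2.0 luminescence, with 0 set by vehicle wells and 1 by blank wells, after 72 hours of two-drug dosing of cells plated in 1536-well plates.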

[2] = system: HCC1419 (Breast Carcinoma)
In short: as §1

[3] = system: KYSE-270 (Esophageal Squamous Cell Carcinoma)
In short: as §1

SJSA-1 (Osteosarcoma) = system: SJSA-1 (Osteosarcoma)
In short: as §1

[4] = system: CHSA8926 (Chondrosarcoma)
In short: as §1

[5] = system: H9 (T-Cell Non-Hodgkin's Lymphoma)
In short: as §1

RD (Rhabdomyosarcoma) = system: RD (Rhabdomyosarcoma)
In short: as §1

[6] = system: KY821 (Acute Myeloid Leukemia)
In short: as §1

[7] = system: JHH-4 (Hepatocellular Carcinoma)
In short: as §1

[8] = system: RPMI-8226 (Plasma Cell Myeloma)
In short: as §1

[9] = system: ESO51 (Esophageal Adenocarcinoma)
In short: as §1

[10] = system: SK-GT-4 (Esophageal Adenocarcinoma)
In short: as §1

[11] = system: KU812 (Chronic Myelogenous Leukemia)
In short: as §1

[12] = system: VMRC-RCZ (Kidney Carcinoma)
In short: as §1

[13] = system: NCI-H520 (Squamous Cell Lung Carcinoma)
In short: as §1

[14] = system: IM-95 (Gastric Carcinoma)
In short: as §1

[15] = system: SNU-398 (Hepatocellular Carcinoma)
In short: as §1

[16] = system: HCC1187 (Breast Carcinoma)
In short: as §1

[17] = system: KP-3 (Pancreatic Carcinoma)
In short: as §1

[18] = system: SUP-B15 (B-Lymphoblastic Leukemia)
In short: as §1

Row | Structure (SMILES) | combination Emax [1] | combination Emax [2] | combination Emax [3] | combination Emax (SJSA-1 (Osteosarcoma)) | combination Emax [4] | combination Emax [5] | combination Emax (RD (Rhabdomyosarcoma)) | combination Emax [6] | combination Emax [7] | combination Emax [8] | combination Emax [9] | combination Emax [10] | combination Emax [11] | combination Emax [12] | combination Emax [13] | combination Emax [14] | combination Emax [15] | combination Emax [16] | combination Emax [17] | combination Emax [18]
1 | Cc1cc2ncnn2cc1Nc1ncc2c(n1)n(C1CCOCC1)c(=O)n2C [AZD7648] + C=CCn1c(=O)c2cnc(Nc3ccc(N4CCN(C)CC4)cc3)nc2n1-c1cccc(C(C)(C)O)n1 [AZD1775] (first compound max 10 µM, partner max 1 µM) | 0.461 | 0.341 | 0.594 | 0.486 | 0.592 | 0.969 | 0.32 | 0.994 | 0.483 | 0.348 | 0.576 | 0.474 | 0.799 | 0.393 | 0.81 | 0.501 | 0.533 | 0.304 | 0.282 | 0.553
2 | Cc1cc2ncnn2cc1Nc1ncc2c(n1)n(C1CCOCC1)c(=O)n2C [AZD7648] + CCN(CCO)CCCOc1ccc2c(Nc3cc(CC(=O)Nc4cccc(F)c4)[nH]n3)ncnc2c1 [AZD2811] (first compound max 10 µM, 7x7, partner max 1 µM) | 0.276 | 0.285 | 0.183 | 0.359 | 0.47 | 0.722 | 0.214 | 0.495 | 0.245 | 0.392 | 0.227 | 0.389 | 0.66 | 0.276 | 0.704 | 0.424 | 0.363 | 0.824 | 0.237 | 0.875
3 | Cc1cc2ncnn2cc1Nc1ncc2c(n1)n(C1CCOCC1)c(=O)n2C [AZD7648] + CN(C)CCCOc1ccc(-c2ccc3ncc4c(c3c2)n(C2CCOCC2)c(=O)n4C)cn1 [AZD0156] (first compound max 10 µM, 7x7, partner max 1 µM) | 0.246 | 0.358 | 0.143 | 0.456 | 0.446 | 0.331 | 0.195 | 0.417 | 0.247 | 0.248 | 0.192 | 0.315 | 0.467 | 0.256 | 0.614 | 0.303 | 0.194 | 0.104 | 0.159 | 0.174
4 | Cc1cc2ncnn2cc1Nc1ncc2c(n1)n(C1CCOCC1)c(=O)n2C [AZD7648] + C[C@@H]1COCCN1C2=NC(=NC(=C2)C3(CC3)[S@](=N)(=O)C)C4=C5C=CNC5=NC=C4 [AZD6738] (first compound max 10 µM, 7x7, partner max 10 µM) | 0.531 | 0.327 | 0.717 | 0.435 | 0.428 | 0.964 | 0.246 | 0.92 | 0.276 | 0.855 | 0.744 | 0.576 | 0.769 | 0.388 | 0.771 | 0.317 | 0.46 | 0.278 | 0.296 | 0.848
5 | Cc1cc2ncnn2cc1Nc1ncc2c(n1)n(C1CCOCC1)c(=O)n2C [AZD7648] + O=C(c1cc(Cc2n[nH]c(=O)c3ccccc23)ccc1F)N1CCN(C(=O)C2CC2)CC1 [Olaparib] (first compound max 10 µM, 7x7, partner max 10 µM) | 0.0568 | 0.174 | 0.212 | 0.18 | 0.241 | 0.22 | 0.161 | 0.355 | 0.112 | 0.464 | 0.224 | 0.26 | 0.393 | 0.129 | 0.485 | 0.204 | 0.134 | 0.294 | 0.0579 | 0.917
6 | COc1cccc2c1C(=O)c1c(O)c3c(c(O)c1C2=O)C[C@@](O)(C(=O)CO)C[C@@H]3O[C@H]1C[C@H](N)[C@H](O)[C@H](C)O1 [Doxorubicin] + Cc1cc2ncnn2cc1Nc1ncc2c(n1)n(C1CCOCC1)c(=O)n2C [AZD7648] (first compound max 1 µM, 7x7, partner max 10 µM) | 0.624 | 0.535 | 0.944 | 0.864 | 0.701 | 1 | 0.493 | 0.983 | 0.666 | 0.976 | 0.611 | 0.593 | 0.822 | 0.317 | 0.771 | 0.7 | 0.595 | 0.724 | 0.152 | 0.987
7 | COc1cc2ncnc(Nc3ccc(F)c(Cl)c3)c2cc1OCCCN1CCOCC1 [Gefitinib] + CC(C)n1c(=O)n(C)c2cnc3cc(F)c(-c4ccc(OCCCN5CCCCC5)nc4)cc3c21 [AZD1390] (first compound max 10 µM, 7x7, partner max 0.3 µM) | 0.411 | 0.425 | 0.435 | 0.0992 | 0.194 | 0.47 | 0.0787 | 0.416 | 0.234 | 0.0829 | 0.188 | 0.373 | 0.425 | 0.11 | 0.15 | 0.171 | 0.0256 | 0.108 | 0.0907 | 0.0538
